The results in this text go back to patent US7101878B1 (Agouron Pharmaceuticals, Inc., priority 1998, dated 2006).

By IC50 is commonly meant the concentration needed to halve the response being measured.

One test concerns the target T1, human GnRH receptor (Homo sapiens, UniProt P30968).
T1 construct: expressed in transfected cells; host or cells: HEK 293 (hGnRH-R/293, from Dr. Stuart Sealfon)
T1 sequence (P30968 1-328): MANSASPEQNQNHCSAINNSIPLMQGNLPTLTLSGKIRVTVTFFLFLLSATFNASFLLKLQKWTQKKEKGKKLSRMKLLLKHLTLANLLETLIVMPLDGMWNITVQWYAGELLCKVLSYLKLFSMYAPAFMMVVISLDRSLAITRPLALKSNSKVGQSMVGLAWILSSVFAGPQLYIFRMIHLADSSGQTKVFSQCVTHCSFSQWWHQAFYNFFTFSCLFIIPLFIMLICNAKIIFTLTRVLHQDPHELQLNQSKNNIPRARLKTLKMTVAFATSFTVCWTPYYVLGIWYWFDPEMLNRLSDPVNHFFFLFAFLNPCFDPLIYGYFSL
Nature of the test: Radioligand binding, 125I-GnRH-A displacement, membranes of HEK 293 cells with human GnRH receptor. As to conditions: read-out: hGnRH IC50. Summed up:
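After filtration and PBS washes, bound radioactivity was counted by scintillation and IC50 derived. Identical conditions applied for non-human receptors.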

The next test addresses T2, mouse GnRH receptor (Mus musculus, UniProt Q01776).
T2 construct: expressed in transfected cells; host or cells: 293 cells
T2 sequence (Q01776 1-327): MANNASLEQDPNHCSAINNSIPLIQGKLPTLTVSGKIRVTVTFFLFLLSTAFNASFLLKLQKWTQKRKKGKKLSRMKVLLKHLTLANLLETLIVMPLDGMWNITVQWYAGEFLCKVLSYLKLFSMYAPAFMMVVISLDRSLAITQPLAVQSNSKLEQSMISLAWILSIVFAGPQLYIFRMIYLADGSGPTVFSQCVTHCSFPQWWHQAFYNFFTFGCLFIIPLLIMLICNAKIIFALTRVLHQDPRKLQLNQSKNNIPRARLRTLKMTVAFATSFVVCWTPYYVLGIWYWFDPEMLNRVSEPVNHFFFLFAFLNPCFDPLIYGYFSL
Nature of the test: Radioligand binding, 125I-GnRH-A, 293 cells expressing mouse GnRH receptors. To be noted: read-out: mGnRH IC50. Summed up:
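Bound label captured on 0.1% polyethyleneimine-treated GF/C filters, washed three times with PBS, counted. IC50 derived; identical set-up for every species.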

A further test deals with T3, rat GnRH receptor (Rattus norvegicus, UniProt P30969).
T3 sequence (P30969 1-327): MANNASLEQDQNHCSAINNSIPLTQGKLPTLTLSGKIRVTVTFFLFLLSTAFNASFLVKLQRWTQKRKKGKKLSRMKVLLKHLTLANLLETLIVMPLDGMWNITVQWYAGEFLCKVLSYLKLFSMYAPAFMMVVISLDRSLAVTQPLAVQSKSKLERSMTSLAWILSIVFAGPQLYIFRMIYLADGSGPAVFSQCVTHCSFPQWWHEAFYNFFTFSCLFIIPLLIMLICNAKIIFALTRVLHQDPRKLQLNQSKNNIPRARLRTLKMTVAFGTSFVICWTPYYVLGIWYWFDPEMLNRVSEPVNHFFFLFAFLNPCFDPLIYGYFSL
Nature of the test: Radioligand binding, 125I-GnRH-A, rat pituitary membranes. As to conditions: read-out: rGnRH IC50. On the set-up: membranes were prepared from rat pituitary; from tissue; host or cells: rat pituitary. How it is done: All compounds were diluted in 1% DMSO (final assay concentration) in binding assay buffer. […] Reactions were terminated by rapid filtration onto 96-well Packard GF/C filters soaked in 0.1% polyethyleneimine. Filters were washed three times with PBS buffer, dried and counted on a Packard Topcount by liquid scintillation counting.
Assay conditions were identical for assessing compound activities at other species. […] IC50 values for control peptides and test compounds were calculated utilizing GraphPad Prism™ software.
The reaction mixture was vortexed and incubated for 1 min at room temperature. After one min, the mixture was vortexed and allowed to incubate for an additional minute. 2 ml of 0.5 M acetic acid/1% BSA was added to the reaction tube and the mixture was added to a C18 Sep-Pak cartridge. The cartridge was washed with subsequent washes of 5 ml H2O and 5 ml 0.5M acetic acid and then eluted with 5×1 ml of 60% CH3CN/40% 0.5M acetic acid. The eluate was diluted with 3× volume of HPLC buffer A (0.1% TFA in H2O) and loaded onto a C18 column. […] The radioactive fractions (750 ed/fraction) are collected into clean polypropylene tubes containing 100 μl of 10% BSA. Fractions were assessed for biological activity by radioligand binding.

With `Cc1cc2c(cc1Cc1ccc(C(=O)NCC3CCC(CN)CC3)o1)C(C)(C)CCC2(C)C` (stereo not shown) [Compound 75], the values for the 50% inhibitory concentration (IC50) on human GnRH receptor, at mouse GnRH receptor and at rat GnRH receptor were 115 nM, 710 nM and 740 nM, respectively.
Consider `Cc1cc2c(cc1Cc1ccc(C(=O)N3CCC(CNc4nccc(NCC5CCCO5)n4)CC3)o1)C(C)(C)CCC2(C)C` (stereo not shown) [Compound 86.5], for which the IC50 at human GnRH receptor turned out to be 2570 nM; at rat GnRH receptor, 2050 nM.
Consider `CCc1cccc(CC)c1NC(=O)c1ccc(Cc2cc3c(cc2C)C(C)(C)CCC3(C)C)o1` [Compound 86], for which the values for the concentration for half-maximal inhibition (IC50) at human GnRH receptor and at rat GnRH receptor were 8000 nM and 510 nM, respectively.
Turning to `Cc1cc2c(cc1Cc1ccc(C(=O)NCC3CCN(C(=O)OC(C)(C)C)CC3)o1)C(C)(C)CCC2(C)C` [Compound 87], the IC50 at human GnRH receptor was 270 nM; at rat GnRH receptor, 3310 nM.
For `Cc1cc2c(cc1Cc1ccc(C(=O)NCC3CCC(CNC(=O)C(F)(F)F)CC3)o1)C(C)(C)CCC2(C)C` (stereo not shown) [Compound 89], in that order: 250 nM and 2730 nM.
For `Cc1cc2c(cc1Cc1ccc(C(=O)NCC3CCC(CNCc4c(C)noc4C)CC3)o1)C(C)(C)CCC2(C)C` (stereo not shown) [Compound 90], in that order: 560 nM and 1260 nM.
For the compound `Cc1cc2c(cc1Cc1ccc(C(=O)NCC3CCC(CNCc4cc(=O)[nH]c(=O)[nH]4)CC3)o1)C(C)(C)CCC2(C)C` (stereo not shown) [Compound 91], the results for the IC50 on human GnRH receptor, on mouse GnRH receptor and at rat GnRH receptor were 120 nM, 790 nM and 950 nM, respectively.
On to `Cc1cc2c(cc1Cc1ccc(C(=O)NCC3CCC(CNc4nccc(Cl)n4)CC3)o1)C(C)(C)CCC2(C)C` (stereo not shown) [Compound 93], for which the IC50 amounted to 8000 nM at human GnRH receptor and 5470 nM on rat GnRH receptor.
Take `Cc1cc2c(cc1Cc1ccc(C(=O)N3CCC(Nc4nccc(NCC5CCCO5)n4)CC3)o1)C(C)(C)CCC2(C)C` (stereo not shown) [Compound 94.2]: the IC50 is 3000 nM on human GnRH receptor and 1580 nM on rat GnRH receptor.
For `Cc1cc2c(cc1Cc1ccc(C(=O)NCC3CCC(CNc4ncc(C#N)c(N)n4)CC3)o1)C(C)(C)CCC2(C)C` (stereo not shown) [Compound 94], the figures for the IC50 on human GnRH receptor, at mouse GnRH receptor and on rat GnRH receptor were 315 nM, 1300 nM and 1490 nM, respectively.
For the compound `Cc1cc(C)nc(NS(=O)(=O)c2ccc(NC(=O)c3ccc(Cc4cc5c(cc4C)C(C)(C)CCC5(C)C)o3)cc2)n1` [Compound 97], the IC50 at human GnRH receptor is 1700 nM; at rat GnRH receptor, 1690 nM.
With `COc1ccc(OC)c(NC(=O)c2ccc(Cc3cc4c(cc3C)C(C)(C)CCC4(C)C)o2)c1` [Compound 98], the IC50 at human GnRH receptor amounted to 80 nM; on mouse GnRH receptor, 84 nM; at rat GnRH receptor, 220 nM.
In the case of `Cc1cc2c(cc1Cc1ccc(C(=O)NCC3CCCN(C(=O)OC(C)(C)C)C3)o1)C(C)(C)CCC2(C)C` (stereo not shown) [Compound 100], the IC50 was found to be 585 nM on human GnRH receptor and 6000 nM at rat GnRH receptor.
Consider `Cc1cc2c(cc1Cc1ccc(C(=O)Nc3ccc(NC(=O)OC(C)(C)C)cc3)o1)C(C)(C)CCC2(C)C` [Compound 101], for which the IC50 on human GnRH receptor and at rat GnRH receptor was above 10000 nM throughout.
With `Cc1cc2c(cc1Cc1ccc(C(=O)Nc3ccc(C(N)=O)cc3)o1)C(C)(C)CCC2(C)C` [Compound 102], the IC50 is 1180 nM on human GnRH receptor and 970 nM on rat GnRH receptor.
In the case of `Cc1cc2c(cc1Cc1ccc(C(=O)NCC3CCN(c4ccnc(Cl)n4)CC3)o1)C(C)(C)CCC2(C)C` [Compound 103], the half-inhibitory concentration (IC50) on human GnRH receptor amounted to 360 nM; at rat GnRH receptor, 3460 nM.
For the compound `Cc1cc2c(cc1Cc1ccc(C(=O)NCC3CCCC(CNC(=O)C(F)(F)F)C3)o1)C(C)(C)CCC2(C)C` (stereo not shown) [Compound 105], the results for the concentration for half-maximal inhibition (IC50) on human GnRH receptor, at mouse GnRH receptor and on rat GnRH receptor were 22 nM, 200 nM and 250 nM, respectively.
Consider `Cc1cc2c(cc1Cc1ccc(C(=O)NCc3cccc(CNc4ncccn4)c3)o1)C(C)(C)CCC2(C)C` [Compound 106], for which the values for the IC50 at human GnRH receptor and on rat GnRH receptor were 2000 nM and 510 nM, respectively.
Take `Cc1cc2c(cc1Cc1ccc(C(=O)Nc3ccc(S(=O)(=O)Nc4ccc(Cl)nn4)cc3)o1)C(C)(C)CCC2(C)C` [Compound 107]: the IC50 at human GnRH receptor and on rat GnRH receptor was above 10000 nM in each case.
Regarding `Cc1cc2c(cc1Cc1ccc(C(=O)NCC3CCC(CNc4ncccn4)CC3)o1)C(C)(C)CCC2(C)C` (stereo not shown) [Compound 111], the IC50 came out at 630 nM on human GnRH receptor and 1740 nM on rat GnRH receptor.
On to `Cc1cc2c(cc1Cc1ccc(C(=O)NCc3ccc(CN)cc3)o1)C(C)(C)CCC2(C)C` [Compound 113], for which the results for the IC50 on human GnRH receptor and on rat GnRH receptor were 340 nM and 300 nM, respectively.
On to `Cc1cc2c(cc1Cc1ccc(C(=O)NCc3cccc(CNC(=O)C(F)(F)F)c3)o1)C(C)(C)CCC2(C)C` [Compound 116], for which the IC50 amounted to 1170 nM at human GnRH receptor and 390 nM at rat GnRH receptor.
For the compound `Cc1cc2c(cc1Cc1ccc(C(=O)NC3CCN(c4nccc(NCC5CCCO5)n4)C3)o1)C(C)(C)CCC2(C)C` (stereo not shown) [Compound 117], the half-maximal inhibitory concentration (IC50) at human GnRH receptor amounted to 1810 nM; at rat GnRH receptor it was 3000 nM.
For `COC(=O)c1cc(OC)c(OC)c(OC)c1NC(=O)c1ccc(Cc2cc3c(cc2C)C(C)(C)CCC3(C)C)o1` [Compound 118], the figures for the IC50 on human GnRH receptor and at rat GnRH receptor were 380 nM and 430 nM, respectively.
Take `Cc1cc2c(cc1Cc1ccc(C(=O)Nc3cncc(COC(=O)c4ccc(Cc5cc6c(cc5C)C(C)(C)CCC6(C)C)o4)c3)o1)C(C)(C)CCC2(C)C` [Compound 120]: the IC50 at human GnRH receptor and at rat GnRH receptor was above 10000 nM throughout.
As to `COCCCNC(=O)c1ccc(Cc2cc3c(cc2C)C(C)(C)CCC3(C)C)o1` [Compound 122], the IC50 at human GnRH receptor amounted to 730 nM; at rat GnRH receptor, 1260 nM.
For the compound `COC(CCCNC(=O)c1ccc(Cc2cc3c(cc2C)C(C)(C)CCC3(C)C)o1)OC` [Compound 125], the values for the IC50 on human GnRH receptor, at mouse GnRH receptor and at rat GnRH receptor were 135 nM, 1050 nM and 560 nM, respectively.
Consider `Cc1cc2c(cc1Cc1ccc(C(=O)NCC3CCCC(CN)C3)o1)C(C)(C)CCC2(C)C` (stereo not shown) [Compound 127], for which the IC50 at human GnRH receptor came out at 510 nM; on rat GnRH receptor it was 910 nM.
Consider `Cc1cc2c(cc1Cc1ccc(C(=O)NCC3CCN(c4nccc(NCC5CCCO5)n4)CC3)o1)C(C)(C)CCC2(C)C` (stereo not shown) [Compound 128], for which the IC50 turned out to be 220 nM at human GnRH receptor, 220 nM at mouse GnRH receptor and 170 nM at rat GnRH receptor.
Turning to `Cc1cc2c(cc1Cc1ccc(C(=O)NCc3ccc(F)cc3)o1)C(C)(C)CCC2(C)C` [Compound 130], the IC50 at human GnRH receptor was 3000 nM; on rat GnRH receptor it was 590 nM.
Consider `Cc1cc2c(cc1Cc1ccc(C(=O)NCC3CCCC(CNc4ncccn4)C3)o1)C(C)(C)CCC2(C)C` (stereo not shown) [Compound 138], for which the results for the IC50 on human GnRH receptor, on mouse GnRH receptor and on rat GnRH receptor were 200 nM, 1570 nM and 1630 nM, respectively.
For `Cc1cc2c(cc1Cc1ccc(C(=O)NCc3cccc(CN)c3)o1)C(C)(C)CCC2(C)C` [Compound 139], in that order: 110 nM, 150 nM and 113 nM.
Take `Cc1cc2c(cc1Cc1ccc(C(=O)NCc3ccc(CNc4nccc(NCC5CCCO5)n4)cc3)o1)C(C)(C)CCC2(C)C` (stereo not shown) [Compound 141]: the IC50 was 150 nM at human GnRH receptor, 64 nM on mouse GnRH receptor and 35 nM on rat GnRH receptor.
`COCCCNc1ccnc(NCc2cccc(CNC(=O)c3ccc(Cc4cc5c(cc4C)C(C)(C)CCC5(C)C)o3)c2)n1` [Compound 153]: the values for the IC50 on human GnRH receptor, on mouse GnRH receptor and on rat GnRH receptor were 120 nM, 21 nM and 11 nM, respectively.
